In publication PMC6481345, “A novel anti-melanoma SRC-family kinase inhibitor” (Oncotarget, 2019):

System: melanoma cells
Assay: Apoptosis (annexin V staining and caspase activity)
Format: cell-based, human
Conditions: 0.5 µM and 1 µM, 24 hrs
Experimental: The rate of apoptosis was measured using the Dead Cell Apoptosis Kit with Alexa Fluor® 488 annexin V and propidium iodide (Invitrogen, V13241). Phosphatidylserine was visualized by flow cytometry following the manufacturer’s instructions. The assay was done in response to SAB298 (0.5 µM and 1 µM, 24 hrs), compared to DMSO (negative control) or camptothecin (10 µM), as a positive control. In addition, we used the 96-well colorimetric Caspase 3 Assay kit (Millipore Sigma) to measure caspase activity in response to increasing concentrations of SAB298, and western blotting for apoptotic markers, such as cleaved PARP. […]
www.oncotarget.com Oncotarget, Supplementary Materials
A novel anti-melanoma src-family kinase inhibitor
Supplementary Figure 1: Apoptosis in response to SAB298. […]
melanoma cells treated for 24 hrs with SAB298 (0.5 and 1 µM). (C) A bar plot showing the differential levels of annexin positive cells in response to SAB298. (D) Caspase activity in response to SAB298 of four different cell lines (YUSIV, YUSIK, YUGASP and YUSEEP).
(1 picture or pasted object on this page, not shown here)

Nc1ncnc2c1c(-c1ccc(Oc3ccccc3)cc1)nn2C[C@@H]1SSC[C@@H]1O [SAB298, (3S, 4S)-3-((4-amino-3-(4-phenoxyphenyl)-1H-pyrazolo[3,4-d]pyrimidin-1-yl)methyl)-1,2-dithiolan-4-ol]
Apoptosis (annexin staining and caspase activity): induced apoptosis
